For one compound, IC50 results are on record in patent US20240360145A1, “PYRIMIDINE-2,4-DIAMINE DERIVATIVES AS WELL AS PREPARATION METHOD THEREFOR AND USE THEREOF” (LISEN THERAPEUTICS, INC., priority 2022, published 2024).

The subject of one assay is PE043 primary cells. As to the kind of experiment: Cell viability IC50 (CCK-8), primary cells PE043 from lung adenocarcinoma pleural effusion resistant to EGFR-TKI. The conditions noted are these: read-out: cell viability IC50.
Another assay concerns RT-4 (bladder cancer). As to the kind of experiment: Cell viability IC50 (CellTiter-Glo), RT-4. It counts as cell-based. The conditions noted are these: RT-4, 72 hours. The protocol: The cancer cell lines were cultured to the logarithmic growth phase according to conventional culture methods, and the cells were inoculated into a 384-well plate at a density of 2,000 cells/well in a volume of 40 μl/well. The concentrations of added compounds were: […], 1.67 μM, 0.56 μM, 0.19 μM, 0.062 μM, 0.021 μM, 0.0069 μM, 0.0023 μM, 0.00076 μM, and 0 μM. After 72 hours, cell viability was detected using the CellTiter-Glo™ Detection Kit.

The next assay concerns PE052 primary cells. Description: Cell viability IC50 (CCK-8), primary cells PE052 from small cell lung cancer pleural effusion. Format: cell-based. The conditions noted are these: PE052, CCK-8. On the procedure:
(1) The pleural effusion was poured into a 15 mL or 50 mL of sterilized centrifuge tube for centrifugation. Centrifugation conditions: 800 to 1000 rpm, 5 min.
(2) The precipitate was resuspended and washed for 2 to 3 times with PBS.
(3) The cell precipitate was resuspended with complete culture medium (α-MEM medium containing 10% fetal bovine serum and 2% penicillin-streptomycin), and the flocculent matter in the pleural effusion was removed using a sterilized cell sieve.
(4) The red blood cells in the pleural effusion were removed with lymphocyte separation fluid, and the tumor cells and lymphocyte components were collected. The number of tumor cells was observed under a microscope, and the cells were inoculated.
(5) After 24 hours, the supernatant was discarded, and fresh culture medium was added for further culture.
(6) The cell growth status was observed, and it was determined based on the cell status whether the medium was required to be continuously changed to remove blood cells. When the cells grew to a density of 80% to 90%, the cells were preserved.
(1) Primary cells from lung cancer pleural effusion within 5 generations were cultured to the logarithmic growth phase. […] After centrifugation at room temperature, the supernatant was discarded, and the cell precipitate was resuspended with fresh complete culture medium. After counting, the cells were placed at room temperature for later use. The cells were inoculated into a 384-well plate at a density of 2000 cells/well with a volume of 40 μl/well. The wells at the outermost circle of the plate were not inoculated with cells, and instead, added with sterile water to reduce evaporation of the culture medium.
(2) After overnight culture of the cells, the medium was discarded, and a fresh medium containing different concentrations of compounds was added at 200 μl/well. The dilution method of the compound was as follows: first the compound with the highest concentration of 10 μM was prepared, and then the compound was diluted for 3 times in sequence. […] At the same time, a blank control group was set up, in which only an equal volume of culture medium was added without adding cells. Five replicate wells were set up for each group. The cells were placed in the incubator for further culture.
(3) After 72 hours, 8 μl of CCK-8 solution, which was double-diluted with 10 mM PBS, was added to each well, and the cells were shaken and placed in an incubator at 37° C. for further culture for 2 hours.
(4) The light absorbance value at 450 nm was read using a microplate reader, and the IC50 was calculated according to the absorbance value. The calculation method was the same as above.
(1) Sample information: PE039, PE052, and PE062 were all primary cell samples from pleural effusion of patients with small cell lung cancer, and LT015 was a primary cell sample from bronchoscopic biopsy of a patient with small cell lung cancer.
(2) CCK-8 detection was used to detect the IC50 values of different medicaments (compounds).

Take `CN1CC2CCC(C1)N2Cc1ccc(Nc2ncc(Cl)c(Nc3ccccc3S(=O)(=O)N(C)C)n2)cc1` [Compound 8, 2-((5-chloro-2-((4-((3-methyl-3,8-diazabicyclo[3.2.1]octan-8-yl)methyl)phenyl)amino)pyrimidin-4-yl)amino)-N,N-dimethylbenzenesulfonamide]: the IC50 (in general, the midpoint of a concentration-inhibition curve) with PE043 primary cells amounted to 34.6 nM; in the assay with RT-4 (bladder cancer), 54 nM; in the assay with PE052 primary cells it was 59.9 nM.
